The results in this text go back to PMC3871529, “At a Supra-Physiological Concentration, Human Sexual Hormones Act as Quorum-Sensing Inhibitors” (PLoS ONE, 2013).

Series [1] relates to Agrobacterium biosensor cells. The series is described as follows: Minimal bactericidal concentration (MBC). It counts as cell-based, Agrobacterium tumefaciens. As to conditions: Agrobacterium; 99.9% reduction of 10^5 CFU/ml after 36 h at 30°C; read-out: MBC. Here is the method: (§1) Aside from the effect of QSI on QS regulation, the toxicity of these compounds was tested on bacterial cells by measuring two parameters: the minimal inhibitory concentration (MIC) and minimal bactericidal concentration (MBC). MIC, which is the lowest concentration of QSI (µg/ml) inhibiting any visible culture after 36 h of incubation at 30°C, was estimated by culturing 10^5 CFU/ml of the Agrobacterium biosensor cells in the presence of different concentrations of the QSI. MBC, which is the lowest concentration of QSI (µg/ml) that results in a 99.9% reduction of the initial bacterial population (10^5 CFU/ml) after 36 h of incubation at 30°C in the presence of different concentrations of QSI, was estimated by plating 100 µL of the Agrobacterium cultures on agar LBm plates. After an incubation of 48 h at 30°C, CFU were counted and the MBC values were calculated.

The subject of series [2] is Agrobacterium biosensor cells. The series is described as follows: Minimal inhibitory concentration (MIC). It counts as cell-based, Agrobacterium tumefaciens. The note with it: 10^5 CFU/ml, 36 h at 30°C. Here is the method: as §1
Series [3] relates to A. tumefaciens NT1(pZLR4) traG-lacZ reporter fusion. The series is described as follows: QSI activity on A. tumefaciens AHL-bioindicator (traG-lacZ β-galactosidase). The series is classed as cell-based, Agrobacterium tumefaciens. As to conditions: for inhibition at 100 µg/mL: Agrobacterium tumefaciens, read-out: inhibition (%) at 100 µg/ml; for QSI hit in library screening: second screening: compounds at 5 µg/ml, C8-HSL 10 nM, A. tumefaciens biosensor. On the procedure: Two bacterial QS-signal biosensors were used. Chromobacterium violaceum CV026 [41] was grown in Luria-Bertani modified (LBm) medium, in which the NaCl concentration was 5 g/l instead of 10 g/l. Agrobacterium tumefaciens NT1(pZLR4) was grown in AB minimal medium supplemented with mannitol (0.2%). After supplementation with appropriate AHL, each of the QS-biosensors expresses a reporting activity, which is the production of the pigment violacein in C. violaceum CV026 and that of β-galactosidase from the transcriptional fusion traG::lacZ in A. tumefaciens NT1(pZLR4).
When the screening was performed, the chemical library of the Institut de Chimie des Substances Naturelles (ICSN, Gif-sur-Yvette, France) contained more than 3500 synthetic and natural compounds, which were individually dissolved in dimethylsulfoxide (DMSO) at 1mg/ml and stored in 96 microwell plates. A first screening was performed by mixing biosensor CV026 with the AHL hexanoylhomoserine lactone (C6-HSL) at 0.5 µM and the tested compounds at 50 µg/ml. Final volume was adjusted to 100 µl with a synthetic medium (10% LBm and 0.4% sucrose). After 24 hours of incubation at 30°C, the presence or absence of violacein pigment was quoted by visual reading. […] Final volume was adjusted to 100 µl by the addition of AB minimal medium supplemented with mannitol (0.2%) and TY medium (10%). After 4 hours of incubation at 30°C, β-galactosidase activity was measured in A. tumefaciens cultures as previously described. In the two screenings, 4-nitropyridine-N-oxide (4-NPO) was used as a QSI reference. […]

Another series relates to P. aeruginosa. The series is described as follows: Growth kinetics of P. aeruginosa in the presence of QSIs. It counts as cell-based, Pseudomonas aeruginosa. As to conditions: QSI at 0.5 mg/ml, OD600 and CFU at 8 and 18 hour. Here is the method:
(§2) Figure 5 QSIs modulated QS-signal accumulation in P. aeruginosa. Growth kinetics (n = 6) of P. aeruginosa was measured (OD600) in the presence of the QSIs (estradiol, estrone, estriol, hordenine and 4-NPO) at 0.5 mg/ml using DMSO as a negative control. Cell counts were assessed (CFU/ml) at 8- and 18-hour, and C4-HSL and OC12-HSL concentration (µM) were determined in the bacterial cultures at 18-hour. Statistically different values (Student's t test with α = 0.01) are noted by asterisks.
(§3) QS gene transcription in P. aeruginosa PAO1 was monitored using PAO1 strains carrying various gene promoters fused to a lacZ reporter gene, as described in Vandeputte et al., 2010 and Table 1. PAO1 reporter strains were prepared according to Vandeputte et al.. Briefly, 18-hours-old liquid cultures (50 µl) were diluted in order to obtain a starting OD600 nm comprised between 0.02 and 0.03 in fresh LB medium supplemented with 50 mM MOPS pH 7.0 (1 ml), carbenicillin (300 µg/ml) and 10 µl of the QSIs to be tested (OD were measured using a SpectraMax M2 device from Molecular Devices). Test and control QSIs were diluted in 100% DMSO (resulting after addition to the growth medium in a 1% final concentration of DMSO). Cultures were incubated for 18 hours at 37°C with agitation. After incubation, cell densities were assessed spectrophotometrically (OD600 nm) and β-galactosidase assays were performed using the substrate o-nitrophenyl-β-D-galactopyranoside as described previously, [29]. Promoterless-lacZ fusions were used as controls. AHLs were quantified as described in Vandeputte et al.. All tests were performed in quintuplicates and three biological repetitions. The statistical significance of each test was evaluated by conducting Student's t tests and two-way ANOVA combined with the Tukey post-analysis test using the GraphPad Prism software and p values≤0.01 were considered significant.

Series [4] relates to QS-regulated Ti-plasmid transfer in A. tumefaciens. The series is described as follows: QS-regulated Ti-plasmid transfer (conjugation) assay. As to conditions: QSI at 0.1 mg/ml, OC8-HSL 500 pM, 72 h at 24°C. It counts as cell-based, Agrobacterium tumefaciens. On the procedure: Figure 4 In vitro Ti plasmid transfer frequency in Agrobacterium. The Ti plasmid transfer frequencies were measured in the presence of QSI (A) and the four 1248-diastereoisomeres (B) at 0.1 mg/ml. Histograms represent the cell density of transconjugants (CFU/ml), while black diamonds and squares, those of the donor and recipient strains, respectively. Measurements were performed in quadruplicate and the experiment was repeated twice. The cell densities of transconjugants in the presence of QSI were compared to that of the control in the presence of DMSO with a Mann and Whitney test (α = 0.05). Statistically different values are noted by asterisks.
In A. tumefaciens, the transfer of the Ti-plasmid from a donor cell to a recipient one is controlled by QS. QSI were evaluated for their capacity to reduce plasmid transfer frequency in Agrobacterium. In the plasmid transfer assay, two modified Agrobacterium strains were used: a Ti-plasmid donor, which requires exogenous AHL to transfer a kanamycin-resistant (Km^r) Ti-plasmid, and a rifampicin-resistant (Rif^r) recipient strain, which is free of Ti-plasmid. Overnight cultures of the donor and recipient strains were mixed with 500 pM of oxo-octanoylhomoserine lactone (OC8-HSL) and 0.1 mg/ml of QSI in LBm medium. Each combination was repeated 4 times in microwell plates.

Series [5] concerns QS-signal accumulation in P. aeruginosa. Nature of the series: AHL (C4-HSL, OC12-HSL) quantification in P. aeruginosa cultures by mass spectrometry. The series is classed as cell-based, Pseudomonas aeruginosa. As to conditions: QSI at 0.5 mg/ml, 18-hour. Here is the method:
as §2, §3

≈ marks a conversion by molar mass, not a printed value. Where two headings read alike, the source gives them in different places.

One may read the MBC as the lowest tested concentration that kills the bacteria rather than only halting them. One may read the MIC as the smallest concentration in the dilution series that meets the test's criterion for growth inhibition. For `C[C@@H](NC[C@@H]1Cc2ccccc2N1)c1cccc2ccccc12` [(S,R)-1248, (R)-N-((S)-indolin-2-ylmethyl)-1-(naphthalen-1-yl)ethanamine], the MBC in series [1] is 100 µg/mL (≈ 331 µM). Moreover, in series [2] (Agrobacterium, read-out: MIC), the MIC turned out to be 100 µg/mL (≈ 331 µM).
For the compound `Cc1cn(COCCSc2ccccc2)c(=O)[nH]c1=O` [Compound 1949, 5-Methyl-1-(2-phenylsulfanyl-ethoxymethyl)-1H-pyrimidine-2,4-dione], the MBC in series [1] is greater than 100 µg/mL. The minimal inhibitory concentration (MIC) in series [2] (Agrobacterium, read-out: MIC) is greater than 100 µg/mL. Further, in series [3], the inhibition at 100 µg/mL is 38% and the “QSI hit in library screening” value is “hits”.
Regarding `O=[N+]([O-])c1cc[n+]([O-])cc1` [Compound 4-NPO, 4-nitropyridine-N-oxide, reference compound], the MBC in series [1] was greater than 100 µg/mL. In addition, the “effect on growth of P. aeruginosa” value with P. aeruginosa was “slightly delayed the growth”. Besides, the “decrease of plasmid transfer efficiency” value in series [4] is 10 fold. In series [5], the “C4-HSL concentration in cell cultures” value was “reduction” and the “OC12-HSL concentration in cell cultures” value is “reduction”. Moreover, the minimal inhibitory concentration (MIC) in series [2] (Agrobacterium, read-out: MIC) was 25 µg/mL (≈ 178 µM).
For `CN1CCc2c([nH]c3ccccc23)C1` [Compound 3492], in series [1], the MBC is greater than 100 µg/mL. Further, in series [2] (Agrobacterium, read-out: MIC), the MIC was greater than 100 µg/mL. In addition, in series [3], the “QSI hit in library screening” value is “hits”.
Take `C[C@H](NC[C@H]1Cc2ccccc2N1)c1cccc2ccccc12` [(R,S)-1248, (S)-N-((R)-indolin-2-ylmethyl)-1-(naphthalen-1-yl)ethanamine]: in series [1], the MBC worked out at 100 µg/mL (≈ 331 µM). In addition, the MIC in series [2] (Agrobacterium, read-out: MIC) was determined as 100 µg/mL (≈ 331 µM). For the same compound, the inhibition at 100 µg/mL in series [3] amounted to 0%.
In the case of `Cc1ccc(S(=O)(=O)CCC(=O)c2ccccc2)cc1` [Compound 1577], in series [1], the MBC turned out to be 25 µg/mL (≈ 86.7 µM). Also, the “effect on Ti plasmid transfer frequency (words)” value (shortened to “effect … (words)”) in series [4] is listed as “significantly reduce the plasmid transfer frequency by one order of magnitude”. Besides, in series [2] (Agrobacterium, read-out: MIC), the MIC is 3 µg/mL (≈ 10.4 µM). In addition, in series [3], the “QSI hit in library screening” value is listed as “hits”.
As for `CC(C)CCC[C@@H](C)[C@H]1CCC2C3CCC4CC(=O)CC[C@]4(C)C3CC[C@@]21C` (stereo partly drawn) [Compound 1868], in series [1], the MBC is greater than 100 µg/mL. In addition, the MIC in series [2] was 12,5 µg/ml. The minimal inhibitory concentration (MIC) in series [2] (Agrobacterium, read-out: MIC) was 12.5 µg/mL (≈ 32.3 µM). Further, in series [3], the inhibition at 100 µg/mL came out at 34% and the “QSI hit in library screening” value was “hits”.
On to `CC/C=C\C[C@H]1C(=O)CC[C@@H]1CC(=O)O` [Jasmonic acid, jasmonic acid, reference compound], for which the minimum bactericidal concentration (MBC) in series [1] was greater than 100 µg/mL. In series [2] (Agrobacterium, read-out: MIC), the MIC is greater than 100 µg/mL.
With `COc1nc([N+](=O)[O-])nn1[C@H]1C[C@H](O)[C@@H](CO)O1` [Compound 1102], the MBC in series [1] was greater than 100 µg/mL. Further, the “effect … (words)” value in series [4] is listed as “significantly reduce the plasmid transfer frequency by one order of magnitude”. In series [2] (Agrobacterium, read-out: MIC), the MIC was greater than 100 µg/mL. In series [3], the inhibition at 100 µg/mL was 0% and the “QSI hit in library screening” value is on record as “hits”.
Regarding `CC1C2CCC3C4CC=C5CC(N)CCC5(C)C4CCC32CN1C.Cl` (stereo not drawn) [Compound 283, 2,3,11a-Trimethyl-2,3,3a,4,5,5a,5b,6,8,9,10,11,11a,11b,12,13-hexadecahydro-1H-2-aza-pentaleno[1,6a-a]phenanthren-9-ylamine hydrochloride], the MBC in series [1] was greater than 100 µg/mL. Also, the minimum inhibitory concentration (MIC) in series [2] (Agrobacterium, read-out: MIC) was greater than 100 µg/mL. The “QSI hit in library screening” value in series [3] is “hits”.
As for `CC(NCC1Cc2ccccc2N1)c1cccc2ccccc12` (stereo not drawn) [Compound 1248], in series [1], the MBC was greater than 100 µg/mL. Further, the MIC in series [2] (Agrobacterium, read-out: MIC) was greater than 100 µg/mL. In addition, the “QSI hit in library screening” value in series [3] was “hits”.
Take `C[C@@H](NC[C@H]1Cc2ccccc2N1)c1cccc2ccccc12` [(R,R)-1248, (R)-N-((R)-indolin-2-ylmethyl)-1-(naphthalen-1-yl)ethanamine]: in series [1], the MBC stood at 100 µg/mL (≈ 331 µM). In addition, the minimum inhibitory concentration (MIC) in series [2] (Agrobacterium, read-out: MIC) is 100 µg/mL (≈ 331 µM). Moreover, the inhibition at 100 µg/mL in series [3] turned out to be 10%.
In the case of `CC(C)CCC[C@@H](C)[C@H]1CCC2C3CC=C4C[C@@H](Cl)CC[C@]4(C)C3CC[C@@]21C` (stereo partly drawn) [Compound 1099], the minimal bactericidal concentration (MBC) in series [1] is greater than 100 µg/mL. In addition, the “effect … (words)” value in series [4] was “significantly reduce the plasmid transfer frequency by one order of magnitude”. In addition, in series [2] (Agrobacterium, read-out: MIC), the minimum inhibitory concentration (MIC) came out at 100 µg/mL (≈ 247 µM). The “QSI hit in library screening” value in series [3] is recorded as “hits”.
As to `C=C[C@H]1CN2CC[C@H]1C[C@H]2[C@H](O)c1ccnc2ccc(OC)cc12` [Compound 937], the MBC in series [1] was greater than 100 µg/mL. Besides, the minimum inhibitory concentration (MIC) in series [2] (Agrobacterium, read-out: MIC) is greater than 100 µg/mL. In series [3], the inhibition at 100 µg/mL was 15% and the “QSI hit in library screening” value is given as “hits”.
As for `C[C@H](NC[C@@H]1Cc2ccccc2N1)c1cccc2ccccc12` [(S,S)-1248, (S)-N-((S)-indolin-2-ylmethyl)-1-(naphthalen-1-yl)ethanamine], in series [1], the MBC was greater than 100 µg/mL. Besides, the MIC in series [2] (Agrobacterium, read-out: MIC) turned out to be 100 µg/mL (≈ 331 µM).
For `CCC12CCCN3CCC4(C(=C(C(=O)OC)C1)Nc1ccccc14)C32` (stereo not drawn) [Compound 14], the MBC in series [1] is greater than 100 µg/mL. Also, in series [2] (Agrobacterium, read-out: MIC), the MIC is greater than 100 µg/mL. In addition, in series [3], the inhibition at 100 µg/mL came out at 0% and the “QSI hit in library screening” value is given as “hits”.
